From PubChem BioAssay AID2060609 (Molecular Pharmacology Branch, DTP, NCI, 2025)

Tested on: 855422-203-R-J1-PDC complex spheroids, viability
Experiment: Anticancer human tumor 855422-203-R-J1-PDC patient-derived bladder carcinoma cell line growth inhibition [CLK]
Conditions: for IC50: curve of first compound; for viability, T/C: stronger effect = lower value; active = viability on the fitted dose curve at most 10% of control; inactive = the rest
Outline: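 Patient-derived tumor cells grown as complex spheroids with HUVEC endothelial cells and mesenchymal stem cells, treated with drug combinations. Concentrations descend in half-log steps from near clinical Cmax, or from 10 microM if Cmax unknown.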

[1] = second compound 0.0316 µM, first compound 0.0316 µM
[2] = second compound 0.0316 µM, first compound 0.1 µM
[3] = second compound 0.0316 µM, first compound 0.316 µM
[4] = second compound 0.0316 µM, first compound 1 µM
[5] = second compound 0.0316 µM, first compound 3.16 µM
[6] = second compound 0.0316 µM, first compound 10 µM
[7] = second compound 0.1 µM, first compound 0.0316 µM
[8] = second compound 0.1 µM, first compound 0.1 µM
[9] = second compound 0.1 µM, first compound 0.316 µM
[10] = second compound 0.1 µM, first compound 1 µM
[11] = second compound 0.1 µM, first compound 3.16 µM
[12] = second compound 0.1 µM, first compound 10 µM
[13] = second compound 0.316 µM, first compound 0.0316 µM
[14] = second compound 0.316 µM, first compound 0.1 µM
[15] = second compound 0.316 µM, first compound 0.316 µM
[16] = second compound 0.316 µM, first compound 1 µM
[17] = second compound 0.316 µM, first compound 3.16 µM
[18] = second compound 0.316 µM, first compound 10 µM
[19] = second compound 1 µM, first compound 0.0316 µM
[20] = second compound 1 µM, first compound 0.1 µM
[21] = second compound 1 µM, first compound 0.316 µM
[22] = second compound 1 µM, first compound 1 µM
[23] = second compound 1 µM, first compound 3.16 µM
[24] = second compound 1 µM, first compound 10 µM
[25] = second compound 3.16 µM, first compound 0.0316 µM
[26] = second compound 3.16 µM, first compound 0.1 µM
[27] = second compound 3.16 µM, first compound 0.316 µM
[28] = second compound 3.16 µM, first compound 1 µM
[29] = second compound 3.16 µM, first compound 3.16 µM
[30] = second compound 3.16 µM, first compound 10 µM
[31] = second compound 10 µM, first compound 0.0316 µM
[32] = second compound 10 µM, first compound 0.1 µM
[33] = second compound 10 µM, first compound 0.316 µM
[34] = second compound 10 µM, first compound 1 µM
[35] = second compound 10 µM, first compound 3.16 µM
[36] = second compound 10 µM, first compound 10 µM
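Also: spheroids exposed to drugs for seven days before readout.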
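For viability, T/C in this document: 100% = DMSO vehicle control wells.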

C=CC(=O)N1CCN(c2nc(=O)n(-c3c(C)ccnc3C(C)C)c3nc(-c4c(O)cccc4F)c(F)cc23)C(C)C1 (stereo unspecified) + CN1CCN(c2cc(C(=O)Nc3cc4cc(-c5cnn(C)c5)ccc4cn3)ccn2)CC1
> 10000 nM: IC50 (second compound 0.0316 µM) | IC50 (second compound 0.1 µM)
inactive: viability, T/C [1] 99% | viability, T/C [2] 110% | viability, T/C [3] 134% | viability, T/C [4] 138% | viability, T/C [5] 169% | viability, T/C [6] 119% | viability, T/C [7] 85.5% | viability, T/C [8] 92.3% | viability, T/C [9] 94.7% | viability, T/C [10] 116% | viability, T/C [11] 113% | viability, T/C [12] 82.1% | viability, T/C [13] 12.1% | viability, T/C [14] 18.2% | viability, T/C [15] 17.9% | viability, T/C [16] 17.6% | viability, T/C [17] 17.6% | viability, T/C [18] 7.91%
active: viability, T/C [19] 0.24% | viability, T/C [20] 0.27% | viability, T/C [21] 0.3% | viability, T/C [22] 0.42% | viability, T/C [23] 0.52% | viability, T/C [24] 2.45% | viability, T/C [25] 0.88% | viability, T/C [26] 0.76% | viability, T/C [27] 2.22% | viability, T/C [28] 1.37% | viability, T/C [29] 1.55% | viability, T/C [30] 1.14% | viability, T/C [31] 0.53% | viability, T/C [32] 0.49% | viability, T/C [33] 0.4% | viability, T/C [34] 0.89% | viability, T/C [35] 0.88% | viability, T/C [36] 1.04%
< 31.6 nM: IC50 (second compound 0.316 µM) | IC50 (second compound 1 µM) | IC50 (second compound 3.16 µM) | IC50 (second compound 10 µM)

CC(Nc1ccc2c(c1)OCCn1cc(N3C(=O)OCC3C(F)F)nc1-2)C(N)=O (stereo unspecified) + CN1CCN(c2cc(C(=O)Nc3cc4cc(-c5cnn(C)c5)ccc4cn3)ccn2)CC1
active: viability, T/C [13] 7.06% | viability, T/C [14] 6.03% | viability, T/C [15] 4.86% | viability, T/C [16] 2.74% | viability, T/C [17] 2.03% | viability, T/C [18] 0.75% | viability, T/C [19] 0.18% | viability, T/C [20] 0.12% | viability, T/C [21] 0.13% | viability, T/C [22] 0.11% | viability, T/C [23] 0.07% | viability, T/C [24] 0.06% | viability, T/C [25] 0.43% | viability, T/C [26] 0.67% | viability, T/C [27] 0.28% | viability, T/C [28] 0.23% | viability, T/C [29] 0.24% | viability, T/C [30] 0.18% | viability, T/C [31] 0.28% | viability, T/C [32] 0.21% | viability, T/C [33] 0.23% | viability, T/C [34] 0.3% | viability, T/C [35] 0.29% | viability, T/C [36] 0.26%
242 nM: IC50 (second compound 0.1 µM)
280 nM: IC50 (second compound 0.0316 µM)
< 31.6 nM: IC50 (second compound 0.316 µM) | IC50 (second compound 1 µM) | IC50 (second compound 3.16 µM) | IC50 (second compound 10 µM)
inactive: viability, T/C [1] 88.2% | viability, T/C [2] 66.4% | viability, T/C [3] 46.1% | viability, T/C [4] 35.4% | viability, T/C [5] 26.4% | viability, T/C [6] 15.5% | viability, T/C [7] 72.1% | viability, T/C [8] 69.4% | viability, T/C [9] 40.8% | viability, T/C [10] 30.4% | viability, T/C [11] 20.1% | viability, T/C [12] 13.7%

CCCS(=O)(=O)Nc1ccc(F)c(C(=O)c2c[nH]c3ncc(-c4ccc(Cl)cc4)cc23)c1F + CN1CCN(c2cc(C(=O)Nc3cc4cc(-c5cnn(C)c5)ccc4cn3)ccn2)CC1
4790 nM: IC50 (second compound 0.0316 µM)
5020 nM: IC50 (second compound 0.1 µM)
inactive: viability, T/C [1] 83.9% | viability, T/C [2] 88.1% | viability, T/C [3] 103% | viability, T/C [4] 106% | viability, T/C [5] 76.5% | viability, T/C [7] 74.2% | viability, T/C [8] 85.5% | viability, T/C [9] 87.9% | viability, T/C [10] 86.5% | viability, T/C [11] 81.8%
active: viability, T/C [6] 3.42% | viability, T/C [12] 2.76% | viability, T/C [13] 6.38% | viability, T/C [14] 8.19% | viability, T/C [15] 9.52% | viability, T/C [16] 7.73% | viability, T/C [17] 6.35% | viability, T/C [18] 1.15% | viability, T/C [19] 0.16% | viability, T/C [20] 0.18% | viability, T/C [21] 0.46% | viability, T/C [22] 0.19% | viability, T/C [23] 0.19% | viability, T/C [24] 0.08% | viability, T/C [25] 0.34% | viability, T/C [26] 0.68% | viability, T/C [27] 0.32% | viability, T/C [28] 0.46% | viability, T/C [29] 1.09% | viability, T/C [30] 0.77% | viability, T/C [31] 0.23% | viability, T/C [32] 0.51% | viability, T/C [33] 0.21% | viability, T/C [34] 0.35% | viability, T/C [35] 0.5% | viability, T/C [36] 0.29%
< 31.6 nM: IC50 (second compound 0.316 µM) | IC50 (second compound 1 µM) | IC50 (second compound 3.16 µM) | IC50 (second compound 10 µM)
